These results are taken from PubChem BioAssay AID248 (DTP/NCI, 2004).

“And” between values parts separate entries of the source, which are not always exact repeats. Equal entries are not always repeated. Inconclusive results and toxic doses are left out.

The assay has as its system L1210 leukemia ip in BDF1 mice, survival T/C. The assay can be described thus: NCI In Vivo Anticancer Drug Screen. Data for tumor model L1210 Leukemia (intraperitoneal) in B6D2F1 (BDF1) mice. The following applies: endpoint: mean survival time, higher = longer survival. The method, boiled down:
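Tumor cells were implanted, animals were treated, and survival was followed. The result divides the treated measurement by the vehicle-control measurement.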

Setting [1] is: dose: 100.0 mg/kg/injection, schedule: Q01DX009 (ip), vehicle: Klucel (hydroxypropylcellulose) (HPC).
[2] abbreviates: dose: 200.0 mg/kg/injection, schedule: Q01DX009 (ip), vehicle: Klucel (hydroxypropylcellulose) (HPC).
Setting [3] is: dose: 400.0 mg/kg/injection, schedule: Q01DX009 (ip), vehicle: Klucel (hydroxypropylcellulose) (HPC).
Setting [4] is: dose: 100.0 mg/kg/injection, schedule: Q04DX003 (ip), vehicle: Klucel (hydroxypropylcellulose) (HPC).
Where [5] appears, read: dose: 200.0 mg/kg/injection, schedule: Q04DX003 (ip), vehicle: Klucel (hydroxypropylcellulose) (HPC).
Where [6] appears, read: dose: 100.0 mg/kg/injection, schedule: Q01DX001 (ip), vehicle: carboxymethylcellulose (CMC).
Where [7] appears, read: dose: 200.0 mg/kg/injection, schedule: Q01DX001 (ip), vehicle: carboxymethylcellulose (CMC).
The mark [8] stands for this setting: dose: 100.0 mg/kg/injection, schedule: Q01DX001 (ip), vehicle: other.
The mark [9] stands for this setting: dose: 200.0 mg/kg/injection, schedule: Q01DX001 (ip), vehicle: other.
Where [10] appears, read: dose: 100.0 mg/kg/injection, schedule: Q01DX009 (ip), vehicle: saline.
Where [11] appears, read: dose: 200.0 mg/kg/injection, schedule: Q01DX009 (ip), vehicle: saline.
The mark [12] stands for this setting: dose: 400.0 mg/kg/injection, schedule: Q01DX009 (ip), vehicle: saline.

In the case of `CC(NC(=O)c1ccc(Cl)c(Cl)c1)c1ccc(-c2ccccc2)cc1` (configuration not stated), the T/C (dose: 100.0 mg/kg/injection, schedule: Q04DX002 (ip), vehicle: saline with Tween-80) is 102 % of control; the T/C (dose: 200.0 mg/kg/injection, schedule: Q04DX002 (ip), vehicle: saline with Tween-80) was 91 % of control; the T/C (dose: 400.0 mg/kg/injection, schedule: Q04DX002 (ip), vehicle: saline with Tween-80) is 87 % of control.
Consider `COc1ccc(N=Nc2cc(C)c(C)cc2O)cc1`, for which the T/C is, setting by setting: under setting [1], 96 % of control; under setting [2], 103 % of control; under setting [3], 94 % of control.
For the compound `CC(C)C(C)/C=C/C(C)C1CCC2C3=C(C=CC21C)C1(C)CCCCC1=CC3C1C=C2CCCCC2(C)C2=C1C1CCC(C(C)/C=C/C(C)C(C)C)C1(C)C=C2` (configuration not stated), the T/C is 90 % of control under setting [4]; 100 % of control under setting [5]; 90 % of control (dose: 400.0 mg/kg/injection, schedule: Q04DX003 (ip), vehicle: Klucel (hydroxypropylcellulose) (HPC)).
On to `CN(C)S(=O)(=O)c1ccc(CC(O)(c2ccccc2)c2ccccc2)cc1`, for which the T/C (dose: 88.8 mg/kg/injection, schedule: Q01DX001 (ip), vehicle: carboxymethylcellulose (CMC)) was 105 % of control and 91 % of control; the T/C under setting [6] is 98 % of control; the T/C (dose: 133.0 mg/kg/injection, schedule: Q01DX001 (ip), vehicle: carboxymethylcellulose (CMC)) is 120 % of control and 91 % of control; the T/C under setting [7] is 96 % of control and 109 % of control; the T/C (dose: 300.0 mg/kg/injection, schedule: Q01DX001 (ip), vehicle: carboxymethylcellulose (CMC)) was 93 % of control and 97 % of control; the T/C (dose: 400.0 mg/kg/injection, schedule: Q01DX001 (ip), vehicle: carboxymethylcellulose (CMC)) was 104 % of control.
Take `CCC1(O)C(=O)OCc2c1cc(-c1ccccc1)n(C)c2=O` (configuration not stated): the T/C is, setting by setting: (dose: 25.0 mg/kg/injection, schedule: Q01DX001 (ip), vehicle: other) 101 % of control; (dose: 50.0 mg/kg/injection, schedule: Q01DX001 (ip), vehicle: other) 113 % of control; under setting [8], 101 % of control; under setting [9], 98 % of control.
On to `CN(C)NC(=O)CC(N)C(=O)O` (configuration not stated), for which the T/C under setting [10] is 97 % of control, the T/C under setting [11] is 114 % of control and the T/C under setting [12] was 100 % of control.
For `Cc1nc(N)[nH]c(=O)c1CCCN=Cc1ccccc1`, the T/C is 101 % of control under setting [1], 92 % of control under setting [2] and 95 % of control under setting [3].
In the case of `CCCCCCCCCCCCCCC[N+](C)(C)C`, the T/C (dose: 12.5 mg/kg/injection, schedule: Q01DX009 (ip), vehicle: saline) is 102 % of control and the T/C (dose: 25.0 mg/kg/injection, schedule: Q01DX009 (ip), vehicle: saline) is 93 % of control.
For `CC[C@@]1(O)C(=O)OCc2c1cc1n(c2=O)Cc2cc3cc(O)ccc3nc2-1`, the T/C (dose: 0.15 mg/kg/injection, schedule: Q01DX015 (ip), vehicle: saline) was 151 % of control; the T/C (dose: 0.22 mg/kg/injection, schedule: Q01DX015 (ip), vehicle: saline) was 157 % of control; the T/C (dose: 0.34 mg/kg/injection, schedule: Q01DX015 (ip), vehicle: saline) is 165 % of control; the T/C (dose: 0.51 mg/kg/injection, schedule: Q01DX015 (ip), vehicle: saline) is 233 % of control; the T/C (dose: 0.77 mg/kg/injection, schedule: Q01DX015 (ip), vehicle: saline) was 157 % of control; the T/C (dose: 1.0 mg/kg/injection, schedule: Q01DX009 (ip), vehicle: saline) is 185 % of control. Further, the T/C is, setting by setting: (dose: 1.16 mg/kg/injection, schedule: Q01DX015 (ip), vehicle: saline) 161 % of control; (dose: 1.75 mg/kg/injection, schedule: Q01DX015 (ip), vehicle: saline) 177 % of control; (dose: 2.0 mg/kg/injection, schedule: Q01DX001 (ip), vehicle: saline) 111 % of control; (dose: 2.0 mg/kg/injection, schedule: Q01DX009 (ip), vehicle: saline) 229 % of control; (dose: 2.0 mg/kg/injection, schedule: Q01DX009 (oral), vehicle: saline) 105 % of control and 108 % of control; (dose: 3.0 mg/kg/injection, schedule: Q01DX009 (oral), vehicle: saline) 114 % of control and 115 % of control. Moreover, the T/C (dose: 4.0 mg/kg/injection, schedule: Q01DX001 (ip), vehicle: saline) is 164 % of control; the T/C (dose: 7.0 mg/kg/injection, schedule: Q01DX009 (oral), vehicle: saline) is 101 % of control and 120 % of control; the T/C (dose: 8.0 mg/kg/injection, schedule: Q01DX001 (ip), vehicle: saline) was 242 % of control; the T/C (dose: 10.0 mg/kg/injection, schedule: Q01DX009 (oral), vehicle: saline) was 121 % of control; the T/C (dose: 15.0 mg/kg/injection, schedule: Q01DX009 (oral), vehicle: saline) is 115 % of control; the T/C (dose: 16.0 mg/kg/injection, schedule: Q01DX001 (ip), vehicle: saline) was 88 % of control. Besides, the T/C is 113 % of control (dose: 12.0 micrograms/kg/injection, schedule: Q01DX015 (ip), vehicle: saline); 111 % of control (dose: 19.0 micrograms/kg/injection, schedule: Q01DX015 (ip), vehicle: saline); 118 % of control (dose: 29.0 micrograms/kg/injection, schedule: Q01DX015 (ip), vehicle: saline); 120 % of control (dose: 44.0 micrograms/kg/injection, schedule: Q01DX015 (ip), vehicle: saline); 150 % of control (dose: 100.0 micrograms/kg/injection, schedule: Q01DX015 (ip), vehicle: saline).
For `CNC(=S)N/N=C1/C(=N\NC(=S)NC)C(=O)OC1C(O)CO` (configuration not stated), the T/C by setting is: under setting [8], 93 % of control; (dose: 100.0 mg/kg/injection, schedule: Q01DX009 (ip), vehicle: saline with Tween-80) 98 % of control; (dose: 100.0 mg/kg/injection, schedule: Q04DX003 (ip), vehicle: saline with Tween-80) 100 % of control; under setting [9], 95 % of control; (dose: 200.0 mg/kg/injection, schedule: Q01DX009 (ip), vehicle: saline with Tween-80) 112 % of control; (dose: 200.0 mg/kg/injection, schedule: Q04DX003 (ip), vehicle: saline with Tween-80) 89 % of control. Moreover, the T/C (dose: 400.0 mg/kg/injection, schedule: Q01DX001 (ip), vehicle: other) was 90 % of control and the T/C (dose: 400.0 mg/kg/injection, schedule: Q04DX003 (ip), vehicle: saline with Tween-80) is 91 % of control.
With `O=C(O)c1ccc2c(c1)C(=O)c1cc([N+](=O)[O-])ccc1-2`, the T/C was 102 % of control under setting [6] and 102 % of control under setting [7].
For the compound `Nc1cn(C2OC(CO)C(O)C2O)c(=O)[nH]c1=O` (configuration not stated), the T/C by setting is: (dose: 100.0 mg/kg/injection, schedule: Q01DX001 (ip), vehicle: saline) 97 % of control; (dose: 200.0 mg/kg/injection, schedule: Q01DX001 (ip), vehicle: saline) 124 % of control; (dose: 400.0 mg/kg/injection, schedule: Q01DX001 (ip), vehicle: saline) 100 % of control.
`FC(F)(F)c1cccc(NC(=S)SCc2ccccc2)c1`: the T/C is 95 % of control (dose: 75.0 mg/kg/injection, schedule: Q04DX003 (ip), vehicle: saline with Tween-80); 98 % of control (dose: 150.0 mg/kg/injection, schedule: Q04DX003 (ip), vehicle: saline with Tween-80); 102 % of control (dose: 300.0 mg/kg/injection, schedule: Q04DX003 (ip), vehicle: saline with Tween-80).
Take `NC(N)=S`: the T/C is, setting by setting: under setting [10], 103 % of control; (dose: 100.0 mg/kg/injection, schedule: Q01DX015 (oral), vehicle: saline) 97 % of control and 121 % of control; (dose: 100.0 mg/kg/injection, schedule: Q04DX002 (ip), vehicle: saline) 100 % of control; under setting [11], 101 % of control; (dose: 200.0 mg/kg/injection, schedule: Q01DX015 (oral), vehicle: saline) 100 % of control and 121 % of control; (dose: 200.0 mg/kg/injection, schedule: Q04DX002 (ip), vehicle: saline) 113 % of control. Also, the T/C is 103 % of control under setting [12]; 122 % of control (dose: 400.0 mg/kg/injection, schedule: Q01DX015 (oral), vehicle: saline); 95 % of control (dose: 400.0 mg/kg/injection, schedule: Q04DX002 (ip), vehicle: saline).
Consider `O=C(OCS(=O)c1ccccc1)c1ccccc1` (configuration not stated), for which the T/C under setting [4] is 94 % of control and the T/C under setting [5] is 104 % of control.
